From article PMC8976073 (Nature Communications, 2022)
Substitutions are numbered along the chain they refer to. pKi: −log10 of the molar value.

Columns and labels:
Experiment in all cases: Competition binding: inhibition of WK(FITC)YMVm binding to FPR2 (wild type and mutants), HEK293F cells
FPR2 [1] = molecular target: T1, FPR2 (Homo sapiens, UniProt P25090, E89A); settings: FPR2 E89A, mean ± SEM
T1 construct: expressed in transfected cells; host or cells: HEK293F cells, pTT5 vector
T1 sequence (P25090 1-351 E89A): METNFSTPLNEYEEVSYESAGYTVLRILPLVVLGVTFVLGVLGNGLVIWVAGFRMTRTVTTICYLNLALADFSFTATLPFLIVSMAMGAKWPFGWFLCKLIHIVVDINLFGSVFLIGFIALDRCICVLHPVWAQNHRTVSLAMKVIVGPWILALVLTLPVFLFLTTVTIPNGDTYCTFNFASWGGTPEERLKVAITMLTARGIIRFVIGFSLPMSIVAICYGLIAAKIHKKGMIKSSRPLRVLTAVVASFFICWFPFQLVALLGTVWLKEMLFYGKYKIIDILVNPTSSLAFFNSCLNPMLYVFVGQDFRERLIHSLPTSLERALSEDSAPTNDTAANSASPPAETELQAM
Experimental: (§1) The genes of wild-type FPR1 and FPR2 and mutants with a Flag tag at the N termini were cloned into pTT5 vector (Invitrogen) and expressed in HEK293F cells (Invitrogen). Cells were harvested 48 h post transfection with 1 μg ml^−1 plasmid. Cell-surface expression of the receptors was measured by mixing 10 μl cells with 15 μl of TBS buffer supplemented with 4% BSA, 20% (v/v) viability-staining solution 7-AAD (Invitrogen, Cat#00-6993-50), and 0.1% (v/v) anti-FLAG M2-FITC antibody (Sigma, Cat#F4049) at 4 °C for 20 min. After incubation, 175 μl of TBS buffer was added and the fluorescent signal was measured using a flow-cytometry reader (Guava easyCyte HT, Millipore). Then, the cells were washed and resuspended to a final concentration of 1 × 10^6 cells per ml in Hanks’ Balanced Salt Solution (HBSS) buffer supplemented with 0.5% bovine serum albumin (BSA) and 20 mM HEPES, pH 7.4.
(§2) The mean fluorescent intensity of each well was then read by the FCM reader. Total binding and nonspecific binding were measured in the absence and presence of the unlabeled ligand (200 μM WKYMVm), respectively. […] Mean fluorescent-intensity values were measured by flow cytometry. Data were analyzed using Prism 8.0 (GraphPad software).

FPR2 [2] = molecular target: T2, FPR2 (Homo sapiens, UniProt P25090, L198W); settings: FPR2 L198W, mean ± SEM
T2 construct: expressed in transfected cells; host or cells: HEK293F cells, pTT5 vector
T2 sequence (P25090 1-351 L198W): T1 sequence (P25090 1-351 E89A) with A89E, L198W
Experimental: as §1, §2

FPR2 [3] = molecular target: T3, FPR2 (Homo sapiens, UniProt P25090, L272W); settings: FPR2 L272W, mean ± SEM
T3 construct: expressed in transfected cells; host or cells: HEK293F cells, pTT5 vector
T3 sequence (P25090 1-351 L272W): T1 sequence (P25090 1-351 E89A) with A89E, L272W
Experimental: as §1, §2

FPR2 [4] = molecular target: T4, FPR2 (Homo sapiens, UniProt P25090, S211L); settings: FPR2 Construct 2, mean ± SEM
T4 construct: expressed in transfected cells; host or cells: HEK293F cells, pTT5 vector
Experimental: as §1, §2

FPR2 [5] = molecular target: T5, FPR2 (Homo sapiens, UniProt P25090, M85K); settings: FPR2 M85K, mean ± SEM
T5 construct: expressed in transfected cells; host or cells: HEK293F cells, pTT5 vector
T5 sequence (P25090 1-351 M85K): T1 sequence (P25090 1-351 E89A) with M85K, A89E
Experimental: as §1, §2

FPR2 [6] = molecular target: T6, FPR2 (Homo sapiens, UniProt P25090, E89G); settings: FPR2 E89G, mean ± SEM
T6 construct: expressed in transfected cells; host or cells: HEK293F cells, pTT5 vector
T6 sequence (P25090 1-351 E89G): T1 sequence (P25090 1-351 E89A) with A89G
Experimental: as §1, §2

T4 sequence (P25090 with tags, fused parts or gaps S211L): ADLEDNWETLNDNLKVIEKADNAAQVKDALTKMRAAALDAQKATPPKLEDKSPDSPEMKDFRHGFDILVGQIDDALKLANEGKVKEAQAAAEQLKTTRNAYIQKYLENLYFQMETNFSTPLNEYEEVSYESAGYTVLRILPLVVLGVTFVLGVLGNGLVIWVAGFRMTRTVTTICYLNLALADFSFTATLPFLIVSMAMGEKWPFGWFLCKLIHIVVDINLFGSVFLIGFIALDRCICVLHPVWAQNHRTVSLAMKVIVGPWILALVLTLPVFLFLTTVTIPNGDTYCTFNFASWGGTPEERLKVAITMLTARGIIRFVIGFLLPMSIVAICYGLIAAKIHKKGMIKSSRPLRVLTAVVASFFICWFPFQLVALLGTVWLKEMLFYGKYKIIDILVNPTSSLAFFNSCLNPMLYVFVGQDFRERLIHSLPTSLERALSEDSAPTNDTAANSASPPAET

- pKi (FPR2 [1]): 5.65
- pKi (FPR2 [2]): 6.19
- pKi (FPR2 [3]): 6.32
- pKi (FPR2 [4]): 6.28
- pKi (FPR2 [5]): 6.51
- pKi (FPR2 [6]): 6.24
SMILES: CC[C@H](C)[C@H](NC(=O)[C@H](CCC(=O)O)NC(=O)[C@H](CO)NC(=O)[C@@H](NC(=O)[C@H](CC(C)C)NC(=O)[C@H](CC(C)C)NC(=O)[C@H](CC(C)C)NC(=O)[C@H](CC(C)C)NC(=O)[C@H](CS)NC(=O)[C@H](CO)NC(=O)[C@H](Cc1ccccc1)NC(=O)CNC(=O)[C@H](CCCNC(=N)N)NC(=O)[C@@H]1CCCN1C(=O)[C@H](C)NC(=O)[C@H](CCSC)NC=O)[C@@H](C)O)C(=O)N[C@@H](CC(=O)O)C(=O)N[C@@H](CC(C)C)C(=O)N1CCC[C@H]1C(=O)N[C@H](C(=O)N[C@@H](CCCCN)C(=O)N[C@@H](CCCNC(=N)N)C(=O)N[C@@H](CCCNC(=N)N)C(=O)N[C@@H](C)C(=O)O)C(C)C [fHN, N-formyl humanin]
